Molecular target: T1, human recombinant soluble enzyme BACE1 (Homo sapiens, UniProt P56817)
T1 construct: purchased R&D Systems 931-AS
Experiment: Test 1: Inhibition of soluble BACE1 (synthetic substrate S-10-R, HPLC/UV detection of cleavage product)
Type: biochemical
Conditions: BACE1 20 nM, substrate S-10-R 350 μM, 1 hour at 37° C., sodium acetate/acetic acid buffer pH 4.5, 10% DMSO
Text: Test 1: Inhibition of Soluble BACE1
This test uses soluble BACE1 and a synthetic substrate of BACE1.
The human recombinant soluble enzyme BACE1 is available from R&D Systems (reference 931-AS).
The synthetic peptide, made up of the amino acid sequence Ser-Glu-Val-Asn-Leu-Asp-Ala-Glu-Phe-Arg (S-10-R, available from NeoMPS, reference SP000122), is used as synthetic substrate of BACE1.
This synthetic substrate incorporates the cleavage site of BACE1 and fluorescent or chromogenic groups, so that the cleavage products can then be detected, either with UV after separation by HPLC, or by measurement of fluorescence or of optical density. In the present case, the cleavage product Asp-Ala-Glu-Phe-Arg, released during hydrolysis of S-10-R by BACE1, is quantified by UV detection [195 nm] after separation by HPLC with a gradient of acetonitrile from 2% to 100% [HP1100, Agilent; Column Atlantis dC18 (5 mm×2.1 mm; 3 μm)]. […]
The percentage inhibition of the activity of BACE1 by the compounds of the invention is determined as a function of the amount of cleavage product detected by HPLC: the smaller the amount of cleavage product detected, the greater the inhibitory activity of the compounds.
The values of IC50 are then calculated from the percentage inhibition previously determined, in relation to the concentration of the test compounds.

T1 sequence (P56817 46-457 limits assumed): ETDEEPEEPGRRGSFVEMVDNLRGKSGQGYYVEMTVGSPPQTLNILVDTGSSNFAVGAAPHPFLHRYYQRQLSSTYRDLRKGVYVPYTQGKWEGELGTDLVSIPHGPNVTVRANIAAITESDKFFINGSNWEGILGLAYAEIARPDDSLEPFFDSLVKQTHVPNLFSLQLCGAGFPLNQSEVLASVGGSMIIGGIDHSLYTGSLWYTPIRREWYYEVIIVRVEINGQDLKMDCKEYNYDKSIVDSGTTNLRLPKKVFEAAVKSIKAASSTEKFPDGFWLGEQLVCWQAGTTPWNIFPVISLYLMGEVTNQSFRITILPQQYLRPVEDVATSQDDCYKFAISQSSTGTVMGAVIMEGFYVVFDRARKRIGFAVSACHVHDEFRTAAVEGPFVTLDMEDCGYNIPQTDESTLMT

Question: For CCCC1CCCCN1C(=O)c1cc(C(=O)N[C@@H](Cc2cc(F)cc(F)c2)[C@H](O)CNC2(c3cccc(C(F)(F)F)c3)CC2)nn1CC (stereo partly drawn) [compound 53, N-{(1S,2R)-1-(3,5-difluorobenzyl)-2-hydroxy-3-({1-[3-(trifluoromethyl)phenyl]cyclopropyl}amino)propyl}-1-ethyl-5-[(2-propylpiperidin-1-yl)carbonyl]-1H-pyrazole-3-carboxamide], which IC50 is on record?
Answer: Its IC50 is 73 nM.

Question: For CCN(Cc1ccccc1)NC(=O)c1cc(C(=O)N[C@@H](Cc2ccccc2)[C@H](O)CNCc2cccc(C(F)(F)F)c2)nn1CC [compound 69, 5-[(2-benzyl-2-ethylhydrazino)carbonyl]-N-[(1S,2R)-1-benzyl-2-hydroxy-3-{[3-(trifluoromethyl)benzyl]amino}propyl]-1-ethyl-1H-pyrazole-3-carboxamide], which IC50 is on record?
Answer: Its IC50 is 2000 nM.

Source: patent US9102628B2, “Derivatives of pyrazole 3,5-carboxylates, their preparation and their application in therapeutics” (SANOFI, priority 2007, dated 2015)
